Laboratory results as given in the supplement of paper PMC10307832.

What was measured:
Test in all cases: relative viability (nuclei count vs DMSO), 5 days (fraction); higher = more cells survive
[1] = system: A-427
Summary of the method: (§1)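 Lung cancer cell lines were pin-tool dosed in 1536-well plates on the day after seeding, with either a lone drug or a fixed anchor-drug dose plus five library-drug doses (not always all listed) in √10 steps. Nuclei were counted on 4× images after 5 days. Relative viability is the ratio of treated-well to vehicle-well nuclei counts, with each value a median of duplicate plates.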

[2] = system: ABC-1
Summary of the method: as §1

[3] = system: COR-L23
Summary of the method: as §1

[4] = system: ChaGo-K-1
Summary of the method: as §1

[5] = system: EMC-BAC-2
Summary of the method: as §1

[6] = system: HARA
Summary of the method: as §1

[7] = system: HCC-15
Summary of the method: as §1

[8] = system: HCC-366
Summary of the method: as §1

[9] = system: HCC-78
Summary of the method: as §1

[10] = system: LC-2-ad
Summary of the method: as §1

[11] = system: NCI-H1734
Summary of the method: as §1

[12] = system: NCI-H1793
Summary of the method: as §1

[13] = system: NCI-H1944
Summary of the method: as §1

[14] = system: NCI-H1993
Summary of the method: as §1

[15] = system: NCI-H2009
Summary of the method: as §1

[16] = system: NCI-H2023
Summary of the method: as §1

[17] = system: NCI-H2126
Summary of the method: as §1

[18] = system: NCI-H2228
Summary of the method: as §1

[19] = system: NCI-H23
Summary of the method: as §1

[20] = system: NCI-H2405
Summary of the method: as §1

[21] = system: NCI-H838
Summary of the method: as §1

[22] = system: SK-LU-1
Summary of the method: as §1

[23] = system: UMC-11
Summary of the method: as §1

Structure (SMILES): C=C1C(=O)O[C@@H](CCCCCCCC)[C@@H]1C(=O)O [C-75] + Cc1cc(Nc2cc(N3CCN(C)CC3)nc(Sc3ccc(NC(=O)C4CC4)cc3)n2)n[nH]1 [Tozasertib] (partner 0.1 µM)
- relative viability ([1]; first compound 0.08 µM): 0.219
- relative viability ([1]; first compound 0.253 µM): 0.264
- relative viability ([1]; first compound 0.8 µM): 0.221
- relative viability ([1]; first compound 2.53 µM): 0.199
- relative viability ([1]; first compound 8 µM): 0.175
- relative viability ([2]; first compound 0.08 µM): 0.137
- relative viability ([2]; first compound 0.253 µM): 0.163
- relative viability ([2]; first compound 0.8 µM): 0.198
- relative viability ([2]; first compound 2.53 µM): 0.173
- relative viability ([2]; first compound 8 µM): 0.183
- relative viability ([3]; first compound 0.08 µM): 0.232
- relative viability ([3]; first compound 0.253 µM): 0.267
- relative viability ([3]; first compound 0.8 µM): 0.209
- relative viability ([3]; first compound 2.53 µM): 0.172
- relative viability ([3]; first compound 8 µM): 0.179
- relative viability ([4]; first compound 0.08 µM): 0.215
- relative viability ([4]; first compound 0.253 µM): 0.223
- relative viability ([4]; first compound 0.8 µM): 0.196
- relative viability ([4]; first compound 2.53 µM): 0.195
- relative viability ([4]; first compound 8 µM): 0.231
- relative viability ([5]; first compound 0.08 µM): 0.279
- relative viability ([5]; first compound 0.253 µM): 0.288
- relative viability ([5]; first compound 0.8 µM): 0.294
- relative viability ([5]; first compound 2.53 µM): 0.235
- relative viability ([5]; first compound 8 µM): 0.315
- relative viability ([6]; first compound 0.08 µM): 0.149
- relative viability ([6]; first compound 0.253 µM): 0.0813
- relative viability ([6]; first compound 0.8 µM): 0.112
- relative viability ([6]; first compound 2.53 µM): 0.0971
- relative viability ([6]; first compound 8 µM): 0.145
- relative viability ([7]; first compound 0.08 µM): 0.457
- relative viability ([7]; first compound 0.253 µM): 0.608
- relative viability ([7]; first compound 0.8 µM): 0.407
- relative viability ([7]; first compound 2.53 µM): 0.427
- relative viability ([7]; first compound 8 µM): 0.39
- relative viability ([8]; first compound 0.08 µM): 0.197
- relative viability ([8]; first compound 0.253 µM): 0.151
- relative viability ([8]; first compound 0.8 µM): 0.158
- relative viability ([8]; first compound 8 µM): 0.115
- relative viability ([9]; first compound 0.08 µM): 0.431
- relative viability ([9]; first compound 0.253 µM): 0.505
- relative viability ([9]; first compound 0.8 µM): 0.458
- relative viability ([9]; first compound 2.53 µM): 1.28
- relative viability ([9]; first compound 8 µM): 0.444
- relative viability ([10]; first compound 0.08 µM): 0.515
- relative viability ([10]; first compound 0.253 µM): 0.503
- relative viability ([10]; first compound 0.8 µM): 0.443
- relative viability ([10]; first compound 2.53 µM): 0.418
- relative viability ([10]; first compound 8 µM): 0.399
- relative viability ([11]; first compound 0.08 µM): 0.286
- relative viability ([11]; first compound 0.253 µM): 0.225
- relative viability ([11]; first compound 0.8 µM): 0.262
- relative viability ([11]; first compound 2.53 µM): 0.198
- relative viability ([11]; first compound 8 µM): 0.235
- relative viability ([12]; first compound 0.08 µM): 0.306
- relative viability ([12]; first compound 0.253 µM): 0.315
- relative viability ([12]; first compound 0.8 µM): 0.344
- relative viability ([12]; first compound 2.53 µM): 0.258
- relative viability ([12]; first compound 8 µM): 0.335
- relative viability ([13]; first compound 0.08 µM): 0.256
- relative viability ([13]; first compound 0.253 µM): 0.235
- relative viability ([13]; first compound 0.8 µM): 0.243
- relative viability ([13]; first compound 8 µM): 0.246
- relative viability ([14]; first compound 0.08 µM): 0.611
- relative viability ([14]; first compound 0.253 µM): 0.623
- relative viability ([14]; first compound 0.8 µM): 0.59
- relative viability ([14]; first compound 2.53 µM): 0.495
- relative viability ([14]; first compound 8 µM): 0.529
- relative viability ([15]; first compound 0.08 µM): 0.724
- relative viability ([15]; first compound 0.253 µM): 0.743
- relative viability ([15]; first compound 0.8 µM): 0.743
- relative viability ([15]; first compound 2.53 µM): 0.707
- relative viability ([15]; first compound 8 µM): 0.691
- relative viability ([16]; first compound 0.08 µM): 0.407
- relative viability ([16]; first compound 0.253 µM): 0.443
- relative viability ([16]; first compound 0.8 µM): 0.302
- relative viability ([16]; first compound 2.53 µM): 0.384
- relative viability ([16]; first compound 8 µM): 0.409
- relative viability ([17]; first compound 0.08 µM): 0.873
- relative viability ([17]; first compound 0.253 µM): 0.949
- relative viability ([17]; first compound 0.8 µM): 0.841
- relative viability ([17]; first compound 2.53 µM): 0.795
- relative viability ([17]; first compound 8 µM): 0.777
- relative viability ([18]; first compound 0.08 µM): 0.29
- relative viability ([18]; first compound 0.253 µM): 0.344
- relative viability ([18]; first compound 0.8 µM): 0.26
- relative viability ([18]; first compound 2.53 µM): 0.25
- relative viability ([18]; first compound 8 µM): 0.269
- relative viability ([19]; first compound 0.08 µM): 0.36
- relative viability ([19]; first compound 0.253 µM): 0.57
- relative viability ([19]; first compound 0.8 µM): 0.417
- relative viability ([19]; first compound 2.53 µM): 0.339
- relative viability ([19]; first compound 8 µM): 0.254
- relative viability ([20]; first compound 0.08 µM): 0.747
- relative viability ([20]; first compound 0.253 µM): 0.683
- relative viability ([20]; first compound 0.8 µM): 0.756
- relative viability ([20]; first compound 2.53 µM): 0.772
- relative viability ([20]; first compound 8 µM): 0.81
- relative viability ([21]; first compound 0.08 µM): 0.311
- relative viability ([21]; first compound 0.8 µM): 0.229
- relative viability ([21]; first compound 2.53 µM): 0.293
- relative viability ([21]; first compound 8 µM): 0.266
- relative viability ([22]; first compound 0.08 µM): 0.349
- relative viability ([22]; first compound 0.253 µM): 0.374
- relative viability ([22]; first compound 0.8 µM): 0.357
- relative viability ([22]; first compound 2.53 µM): 0.314
- relative viability ([22]; first compound 8 µM): 0.311
- relative viability ([23]; first compound 0.08 µM): 0.213
- relative viability ([23]; first compound 0.253 µM): 0.202
- relative viability ([23]; first compound 0.8 µM): 0.209
- relative viability ([23]; first compound 2.53 µM): 0.161
- relative viability ([23]; first compound 8 µM): 0.227
